Assay results: patent publication US20080118475A1, “Model System for Testing the Efficacy of Pharmaceutical Preparation on Inflammatory Processes in the Nervous System” (KEYNEUROTEK AG, priority 2004, published 2008)
“Also recorded” adds a separate entry of the source.

B1: M-CSF: pro-inflammatory cytokin that activates microglia (protein, UniProt P09603 33-554, looked up)
Macrophage colony-stimulating …: EEVSEYCSHMIGSGHLQSLQRLIDSQMETSCQITFEFVDQEQLKDPVCYLKKAFLLVQDIMEDTMRFRDNTPNAIAIVQLQELSLRLKSCFTKDYEEHDKACVRTFYETPLQLLEKVKNVFNETKNLLDKDWNIFSKNCNNSFAECSSQDVVTKPDCNCLYPKAIPSSDPASVSPHQPLAPSMAPVAGLTWEDSEGTEGSSLLPGEQPLHTVDPGSAKQRPPRSTCQSFEPPETPVVKDSTIGGSPQPRPSVGAFNPGMEDILDSAMGTNWVPEEASGEASEIPVPQGTELSPSRPGGGSMQTEPARPSNFLSASSPLPASAKGQQPADVTGTALPRVGPVRPTGQDWNHTPQKTDHPSALLRDPPEPGSPRISSLRPQGLSNPSTLSAQPQLSRSHSSGSVLPLGELEGRRSTRDRRSPAEPEGGPASEGAARPLPRFNSVPLTDTGHERQSEGSFSPQLQESVFHLLVPSVILVLLAVGGLLFYRWRRRSHQEPQRADSPLEQPEGSPLTQDDRQVELPV

Test system: organo-typical cultures of the hippocampus
Assay: Inflammation-provoked degeneration of organo-typical hippocampal slice cultures, propidium iodide fluorescence
Format: cell-based, Sprague-Dawley rats
Conditions: for degeneration of the tissue / neurons (propidium iodide staining), cytokin in combination with LPS: cytokin plus LPS (200 μm/ml [sic] in the source, 200 ηg/ml), 48 hours, M-CSF 10 ηg/ml, IFNy 30 ηg/ml, GM-CSF 1 ηg/ml; for protection of the neural tissue against degeneration (propidium iodide staining): reagent incubated over 48 hours together with LPS (200 ηg/ml) and GM-CSF (1 ηg/ml)
Description: For the preparation of organo-typical cultures of the hippocampus, 7 to 8 day-old Sprague-Dawley rats were used. From the isolated hippocampus of these animals ca. 400 μm thick slices were prepared, each approximately comprising 20 cell layers. […] The slices were able to be cultured in 6-pore culture plates for up to 3 weeks through changing the medium below the membrane.
All the incubations were carried out in a medium that contained a minimum of 50% of essential medium/HEPES, 25% of Hank's balanced salt solution and 25% of heat-inactivated horse serum.
The degeneration of the tissue was rendered visible by means of a propidium iodide-fluorescence of the cells, which, because of the injury sustained, could no longer prevent, […], diffusion into the cell nucleus and staining of the DNA. Consequently, the red fluorescence above a threshold value was evaluated as the signal for the degeneration of cells. The degree of degeneration per slice was expressed as the percentage of the total surface that the red values lay above the threshold.
Here, both reagents were incubated over 48 hours with LPS and GM-CSF. Thus, for working in this assay, both steroidal as well as non-steroidal reagents were used.
Organo-typical cultures were incubated with LPS either alone or in combination with the pro-inflammatory cytokins GM-CSF and M-CSF over 48 hours. The injury to the tissue (cell mortality) was established by means of propidium iodide staining (A) and quantified by means of an automated picture analysis (B).

Molecule | degeneration of the tissue / neurons (propidium iodide staining), cytokin in combination with LPS | degeneration / injury of the tissue (propidium iodide staining), substance alone (incubated alone over 48 hours) | protection of the neural tissue against degeneration (propidium iodide staining)
GM-CSF: Granulocyte Macrophage Colony-Stimulating Factor, pro-inflammatory cytokin | dramatic degeneration of neurons; also recorded: maximum injury | did not lead to any detectable injury | 
IFNy: pro-inflammatory cytokin that activates the microglia and can induce MHC expression | very strong degeneration of the tissue |  | 
CC(=O)Oc1ccccc1C(=O)O [acetyl salicylic acid, reference compound] |  |  | complete protection of the neural tissue; also recorded: protected
CC(C)Cc1ccc(C(C)C(=O)O)cc1 (stereo not drawn) [iboprufen, reference compound] |  |  | protective activity
B1 | dramatic degeneration of neurons; also recorded: less precipitous |  | 
